Assay results from PMC3522636, “4F Decreases IRF5 Expression and Activation in Hearts of Tight Skin Mice” (PLoS ONE, 2012).
Entries after “also recorded” stand apart in the source; their conditions may differ.

Test system: IRF5
Test: IRF5 positive nuclei, immunofluorescence of heart sections
Format: in vivo, mouse
Conditions: 4F 1 mg/kg/d, sc; Tsk−/+ heart sections, confocal; ratio IRF5 labeled nuclei to total nuclei; p<0.05, n = 3
Text: All experimental procedures and protocols involving mice were reviewed and approved by the Institutional Animal Care and Use Committee (IACUC) of the Medical College of Wisconsin (AUA#512). They also conformed to the rules in the Guiding Principles in the Care and Use of Animals published by the American Physiologic Society and the Guide for the Care and Use of Laboratory Animals published by OLAW. Male Tsk^−/+ and C57Bl/6J mice (6–8 weeks of age) were purchased from Jackson Laboratories (Bar Harbor, ME). Three groups of mice were studied; C57Bl/6J, Tsk^−/+, and Tsk^−/+ mice treated with 4F (1 mg/kg/d, sc) as published previously.
Hearts were harvested from mice, flash frozen and imbedded in OCT and cut into 10 µm sections. Frozen sections were fixed for 10 minutes in PBS containing 1% paraformaldehyde. Cell membranes were permeabilized by incubation in PBS containing 0.5% Triton-X for 5 min at room temperature. The sections were washed once in PBS (5 min) and incubated in PBS containing mouse monoclonal anti-IRF5 antibody (Santa Cruz, 1∶50 concentration) for 30 min at 37°C. Unbound anti-IRF5 antibody was washed free from the sections with PBS and the slides incubated with the appropriate Alexa 488-conjugated secondary antibody (Invitrogen, Carlsbad, CA) for 30 min at 37°C. […] Sections were mounted in aqueous mounting media and analyzed by confocal microscopy, [17].

Ac-DWFKAFYDKVAEKFKEAF-NH2 [4F]
IRF5 nuclear localization / IRF5 positive nuclei: decreased both measurements in Tsk^−/+ hearts; also recorded: marked decreases in IRF-5 nuclear localization; also recorded: significantly more nuclear labeling in Tsk^−/+ hearts compared to C57BL/6J hearts and hearts from Tsk^−/+ mice treated with 4F; also recorded: decrease IRF5 expression, activation, nuclear translocation
